Experiments:
Staphylococcus aureus = type: cell-based
Experimental: The inventors tested this hypothesis by evaluating the chemotherapeutic properties of Rose Bengal and Erythrosin B on cultures of the bacterium Staphylococcus aureus. […] In both illustrations, test cultures were exposed to the indicated agents at the indicated concentrations for the indicated times; cytotoxicity was subsequently estimated by serial dilution (10×dilution per step) of the treated cell cultures into 96-well plates containing fresh culture media; these samples were then incubated under standard conditions. Viability (e.g., Logs of Growth) for each test culture was then estimated by counting the number of dilution steps resulting in positive cell growth. Cytotoxicity upon exposure to a particular agent is thereby estimated by the reduction in viability relative to unexposed (e.g., control) cultures.

[1] = Toxicology data (LD50), murine administration; type: in vivo; conditions: for LD50 p.o.: murine oral (p.o.) administration
[2] = Partition coefficient Kp (n-octanol / phosphate buffered saline); type: physicochemical; conditions: n-octanol vs phosphate buffered saline, PBS, pH = 7.4
Experimental: For example, to a first approximation, an agent's potential for tissue accumulation can be estimated based on the partition coefficient, Kp. This in vitro parameter is purported to have predictive value relating to in vivo agent delivery at the cellular level. […] Kp is determined by measuring the ratio of equilibrium concentrations of an agent in a lipophilic phase (n-octanol) contacted with an aqueous phase (phosphate buffered saline, PBS, pH=7.4).

various murine tumors = conditions: within 24 hours
[3] = tested on: recurrent aggressive sarcoma tumor; assay: Intratumoral injection of 10% Rose Bengal into naturally-occurring sarcoma in a dog; type: in vivo
[4] = Systemic administration of Rose Bengal to obese laboratory mice, tissue accumulation; type: in vivo; conditions: aqueous solution, i.p. or p.o.
Excerpt: For example, Rose Bengal's relatively large partition coefficient is indicative of a preference for accumulation in lipophilic tissue, such as cutaneous lipocytes.

[5] = tested on: BNL/SV40 liver cell tumor; assay: Intratumoral/peritumoral injection of 10% Rose Bengal into BNL/SV40 liver cell tumors in nude mice; type: in vivo, nude mice
[6] = Tissue pharmacokinetics of Rose Bengal after intraperitoneal injection into tumor-bearing nude mice; type: in vivo
Experimental: Tissue samples (liver, abdominal wall, and tumor) were immediately obtained from the sacrificed mice, homogenized, centrifuged for 10 minutes at 1520×g, and the resulting supernatant collected and analyzed fluorimetrically. […] At the same time, persistent accumulation occurs in tumor tissue, with greater than 50% of maximum measured agent concentration maintained in such tissues for periods in excess of 24 hours.

[7] = murine intravenous (i.v.) administration

| SMILES | Cytotoxic effect (reduction in viability, Logs of Growth) (Staphylococcus aureus) | LD50 i.v. [1, 7] [mg/kg] | LD50 p.o. [1] | Partition coefficient, Kp [2] | also measured |
| --- | --- | --- | --- | --- | --- |
| O.O=C([O-])c1ccccc1-c1c2cc(I)c(=O)c(I)c-2oc2c(I)c([O-])c(I)cc12.[Na+].[Na+] [Erythrosin B] | no significant chemotherapeutic response | 370 | >1,000 mg/kg | 1.9 |  |
| CC1(C)C(/C=C/C=C/C=C/C=C2\N(CCCCS(=O)(=O)O)c3ccc4ccccc4c3C2(C)C)=[N+](CCCCS(=O)(=O)[O-])c2ccc3ccccc3c21 [Indocyanine Green, reference compound] |  |  |  |  | Tumor retention after i.t. administration (various murine tumors): substantively migrates out of tumors; LD50 ([1]; mouse, in vivo, murine intravenous (i.v.) administration): 60 mg/kg |
| O=C([O-])c1c(Cl)c(Cl)c(Cl)c(Cl)c1-c1c2cc(Br)c(=O)c(Br)c-2oc2c(Br)c([O-])c(Br)cc12.[Na+].[Na+] [Phloxine B] |  | 310 | 310 mg/kg | 1.1 |  |
| CC1=C(CCC(=O)O)c2cc3[nH]c(cc4nc(cc5[nH]c(cc1n2)c(C)c5C(C)O)C(C)=C4C(C)O)c(C)c3CCC(=O)O (stereo not drawn) [Porphyrin HpIX, reference compound] |  |  | >1,000 mg/kg | 1.5 |  |
| O=C1OC2(c3cc(I)c(O)c(I)c3Oc3c2cc(I)c(O)c3I)c2c(Cl)c(Cl)c(Cl)c(Cl)c21 [Rose Bengal, 4,5,6,7-Tetrachloro-2′,4′,5′,7′-tetraiodofluorescein] | marked chemotherapeutic response that is concentration dependent |  | >1,000 mg/kg | 11.5 | Tumor response at follow-up examination ([3]; after 19 days): further measurable decrease in tumor size; Tumor response at follow-up examination ([3]; approximately 5 cc of 10% solution into approximately 20 cc tumor, after five days): measurable decrease in tumor density along with significant edema and apparent necrosis of large sections of the tumor; Side-effects in healthy tissue surrounding the tumor ([3]; intratumoral injection, dog): no significant side-effects; Tissue accumulation after systemic administration [4]: highly selective accumulation of said agent in certain tissues; Effect on tumor growth ([5]; i.t. and p.t. injection of 10% Rose Bengal, over a period of several weeks): stasis, with no significant change in tumor volume; Time to clearance from normal tissue (tumor tissue remained stained) ([5]; mouse, in vivo): ≤ 7 days; Effect on normal tissue and adjacent tumor tissue ([5]; peritumoral injection alone): no significant effect on normal tissue, nor on the adjacent tumor tissue; Retention in normal tissue ([5]; peritumoral injection alone, after 24 hours): no detectable retention in normal tissue; Time for concentrations in normal tissue (abdominal wall) and liver to diminish to unmeasurable levels ([6]; i.p., 50-100 μL of 0.5% Rose Bengal in saline, tumor-bearing nude mice): ≤ 24 h; Share of maximum measured agent concentration maintained in tumor tissue ([6]; tumor tissue, periods in excess of 24 hours after i.p. injection): greater than 50% |

— US8557298B2, “Medicaments for chemotherapeutic treatment of disease” (Provectus Pharmatech, Inc., priority 1998, dated 2013)
